From article PMC12024213, “Mechanism Insight of Cell Death Signaling by Thymol Derivatives on Trypanosomatidae Protozoan Parasites” (Antibiotics, 2025)
Converted amounts (≈) assume the structure as drawn. Where two headings read alike, the source gives them in different places.

Experiments:
[1] = alamarBlue assay on T. cruzi epimastigotes; assay type: cell-based, Trypanosoma cruzi; details: mouse; CC50 J774.A1 / IC50 T. cruzi epimastigotes; read-out: Selectivity Trypanosoma SI (CC50/IC50)
Experimental: (§1) In a 96-well plate, a serial dilution of the tested derivatives was performed in liver infusion tryptose medium supplemented with 10% heat inactivated fetal bovine serum. Later, 100 µL of 5 × 10^5 cells/mL of epimastigotes was added to each well. Afterwards, 20 µL of alamarBlue® was added to each well, and the plate was maintained at 26 °C for 72 h.
(§2) Cytotoxicity effect of the tested derivatives was conducted using macrophages of the murine cell line J774.A1 (American Type Culture Collection #TIB-67, city, country), as previously described. The cells were maintained in DMEM at 37 °C in a 5% CO2 humidified incubator. All the plates containing alamarBlue® were analyzed using a plate reader EnSpire Multimode Plate Reader® at excitation and emission wavelengths of 570 and 585 nm, respectively (PerkinElmer, ThermoFisher Scientific, Madrid, Spain). The IC50 (concentrations able to inhibit 50% of parasites), IC90 (concentrations able to inhibit 90% of parasites), and CC50 (concentration able to inhibit 50% of murine macrophages) values were determined for each compound by nonlinear regression using GraphPad software.

T. cruzi epimastigotes = assay: alamarBlue assay on T. cruzi epimastigotes; assay type: cell-based, Trypanosoma cruzi; details: mean ± SD, triplicates
Experimental: as §1, §2

[2] = Intramacrophagic stage assay, T. cruzi in J774.A1 macrophages; assay type: cell-based, Trypanosoma cruzi; details: mouse; CC50 J774.A1 / IC50 intracellular T. cruzi; read-out: Selectivity Trypanosoma SI (CC50/IC50)
Experimental: (§3) Briefly, in a 96-well plate, macrophages from the J774.A1 cell line were seeded at a final concentration of 2 × 10^5 cells/mL in Dulbecco’s Modified Eagle Medium (DMEM) and maintained at 37 °C in a 5% CO2 atmosphere until fully adhesion. Cells were infected either with L. amazonensis promastigotes (at a ratio of 1:10) or epimastigotes of T. cruzi (at a ratio of 1:7) (macrophage: parasite) and incubated at 37 °C in 5% CO2 for 24 h for Leishmania and 48 h for Trypanosoma. After infection, plates were washed using DMEM to eliminate external parasites. Subsequently, infected macrophages were treated with different concentrations of active compounds for 24 h. Later, macrophages were lysed using 30 μL of medium, Schneider for Leishmania, and in liver infusion tryptose for Trypanosoma, containing 0.05% of sodium dodecyl sulfate (SDS) for 30 s under agitation. Afterwards, 170 μL of the appropriated medium was derivatives added to each well to give a final volume of 200 μL. Subsequently, 10% of alamarBlue® was added into each well and the plate was incubated at 26 °C for 72 h.
as §2

intramacrophage T. cruzi = assay: as above; assay type: cell-based, Trypanosoma cruzi; details: Trypanosoma cruzi; intramacrophage stage in J774.A1, 24 h treatment; mean ± SD; read-out: T. cruzi Intracellular IC50
Experimental: as §3, §2

[3] = Cytotoxicity assay on murine macrophages (alamarBlue); assay type: cell-based; details: mouse, mean ± SD
Experimental: as §2

[4] = alamarBlue assay on L. amazonensis promastigotes; assay type: cell-based, Leishmania amazonensis; details: mouse; CC50 J774.A1 / IC50 L. amazonensis promastigotes; read-out: Selectivity Leishmania SI (CC50/IC50)
Experimental: (§4) The assay was conducted using the alamarBlue® method as previously described. Briefly, promastigotes of L. amazonensis were grown at 26 °C in Schneider’s medium (US Biological, Life sciences) and supplemented with 10% heat-inactivated fetal bovine serum and 0.04% of sodium bicarbonate. In a 96-well microtiter plates (Corning™, Corning, NY, USA) a serial dilutions of thymol derivatives were first prepared, and later, 10^6 parasites/mL were added into each well. Subsequently, 10% of alamarBlue® was added to the entire plate. The plates were incubated for 72 h at 26 °C.
as §2

[5] = test system: L. amazonensis promastigotes; assay: alamarBlue assay on L. amazonensis promastigotes; assay type: cell-based, Leishmania amazonensis; details: mean ± SD, triplicates
Experimental: as §4, §2

[6] = test system: promastigote stage of L. major; design: method as in PMID 37595813; details: cited from earlier work
[7] = test system: promastigote stage of L. tropica; design: method as in PMID 37595813; details: cited from earlier work
L. infantum = test system: L. infantum; design: method as in PMID 31151304; details: cited from earlier work
L. chagasi = test system: L. chagasi; design: method as in PMID 20428679; details: cited from earlier work
L. amazonensis = test system: L. amazonensis; design: method as in PMID 28509873; details: cited from earlier work
[8] = test system: promastigote stage of L. infantum and L. chagasi; design: method as in PMID 25281268; details: cited from earlier work
[9] = test system: amastigote stage of L. infantum and L. chagasi; design: method as in PMID 25281268; details: cited from earlier work
[10] = Intramacrophagic stage assay, L. amazonensis in J774.A1 macrophages; assay type: cell-based, Leishmania amazonensis; details: mouse; CC50 J774.A1 / IC50 intracellular L. amazonensis; read-out: Selectivity Leishmania SI (CC50/IC50)
Experimental: as §3, with “fully adhesion. […] After infection,” for “fully adhesion. Cells were infected either with L. amazonensis promastigotes (at a ratio of 1:10) or epimastigotes of T. cruzi (at a ratio of 1:7) (macrophage: parasite) and incubated at 37 °C in 5% CO2 for 24 h for Leishmania and 48 h for Trypanosoma. After infection,”, “72 h. Cytotoxicity effect of the tested derivatives was conducted using macrophages of the murine cell line J774.A1 (American Type Culture Collection #TIB-67, city, country), as previously described. The cells were maintained in DMEM at 37 °C in a 5% CO2 humidified incubator.” for “72 h.”

[11] = test system: intramacrophage L. amazonensis; assay: as above; assay type: cell-based, Leishmania amazonensis; details: Leishmania amazonensis; intramacrophage stage in J774.A1, 24 h treatment; mean ± SD; read-out: L. amazonensis Intracellular IC50
Experimental: as §3, with “fully adhesion. […] After infection,” for “fully adhesion. Cells were infected either with L. amazonensis promastigotes (at a ratio of 1:10) or epimastigotes of T. cruzi (at a ratio of 1:7) (macrophage: parasite) and incubated at 37 °C in 5% CO2 for 24 h for Leishmania and 48 h for Trypanosoma. After infection,”, “72 h. Cytotoxicity effect of the tested derivatives was conducted using macrophages of the murine cell line J774.A1 (American Type Culture Collection #TIB-67, city, country), as previously described. The cells were maintained in DMEM at 37 °C in a 5% CO2 humidified incubator.” for “72 h.”

[12] = Trypanosoma cruzi, 72 h, epimastigotes, alamarBlue, 72 h at 26 °C, read-out: T. cruzi Epimastigote IC50
[13] = Leishmania amazonensis, 72 h, promastigotes, alamarBlue, 72 h at 26 °C, read-out: L. amazonensis Promastigote IC50
[14] = epimastigotes, alamarBlue, 72 h at 26 °C, read-out: T. cruzi Epimastigote IC50

SMILES	selectivity ratio [1]	IC50 (T. cruzi epimastigotes; [12]) [µM]	CC50 ([3]; J774.A1 macrophage cell line) [µM]	selectivity ratio [4]	IC50 [5, 13] [µM]	also measured
O=C(Cn1ccnc1[N+](=O)[O-])NCc1ccccc1 [B, Benznidazole, reference compound]	58	6.9 ± 0.8	399.9 ± 1.4	–	–	selectivity ratio [2]: 148; IC50 (intramacrophage T. cruzi): 2.7 ± 0.4 µM
Cc1ccc(C(C)C)c(O)c1 [Compound 1, thymol]	> 1.5	206 ± 2.8	> 300	> 0.9	318 ± 21.4	activity against promastigote stage of L. major [6]: inactive; activity against promastigote stage of L. tropica [7]: inactive; IC50 against L. infantum (L. infantum): 7.2 µg/mL (≈ 47.9 µM); IC50 against L. chagasi (L. chagasi): 28.0 µg/mL (≈ 186 µM); IC50 against L. amazonensis (L. amazonensis): 26.8 µg/mL (≈ 178 µM)
CC(=O)Oc1cc(C)ccc1C(C)C [Derivative 2, thymyl acetate]	–	> 350	–	–	> 350	EC50 against promastigote stage [8]: 9.07 µg/mL; EC50 against amastigote stage [9]: 10.95 µg/mL
Cc1ccc(C(C)C)c(OC(=O)CCl)c1 [Derivative 3, thymyl chloroacetate]	> 6.1	–	–	> 3.8	–	IC50 ([5]; Leishmania amazonensis, promastigotes, alamarBlue, 72 h at 26 °C, read-out: L. amazonensis Promastigote IC50): 78.8 ± 15.9 µM; IC50 (T. cruzi epimastigotes; Trypanosoma cruzi, epimastigotes, alamarBlue, 72 h at 26 °C, read-out: T. cruzi Epimastigote IC50): 49.5 ± 3.2 µM; CC50 ([3]; murine macrophages J774.A1): > 300 µM
Cc1ccc(C(C)C)c(OCC(=O)OC(=O)CCl)c1 [Derivative 4, 2-thymyl-2′-(chloro)-acetic anhydride]	0.9	124 ± 6	120.9 ± 0.4	0.8	148 ± 10	–
CCCC(=O)Oc1cc(C)ccc1C(C)C [Derivative 5, thymyl butyrate]	> 1.4	150 to 250	> 300	> 1.4	150 to 250	IC50 ([5]; promastigotes, alamarBlue, 72 h at 26 °C, read-out: L. amazonensis Promastigote IC50): 216 ± 7.5 µM; IC50 (T. cruzi epimastigotes; [14]): 211 ± 7.3 µM
Cc1ccc(C(C)C)c(OC(=O)CCC(=O)O)c1 [Derivative 6, thymyl hemisuccinate]	–	> 350	–	–	> 350	–
Cc1ccc(C(C)C)c(OC(=O)c2ccccc2)c1 [Derivative 7, thymyl benzoate]	> 4.5	66 ± 1.7	> 300	> 5.4	56 ± 5.6	EC50 against promastigote stage [8]: 8.67 µg/mL (≈ 34.1 µM); EC50 against amastigote stage [9]: 15.09 µg/mL (≈ 59.3 µM)
Cc1ccc(C(C)C)c(OC(=O)c2ccc([N+](=O)[O-])cc2)c1 [Derivative 8, thymyl-4-nitrobenzoate]	> 6.8	50 to 150	> 300	> 3.9	76.4 ± 6.2	IC50 (T. cruzi epimastigotes; [14]): 44.4 ± 2.5 µM
Cc1ccc(C(C)C)c(OC(=O)Oc2ccc([N+](=O)[O-])cc2)c1 [Derivative 11, thymyl-4-nitrophenylcarbonate]	> 4.5	66.9 ± 3.8	> 300	> 5.2	56.9 ± 7.2	–
Cc1ccc(C(C)C)c(OC(=O)N(C)C)c1 [Derivative 12, thymyl N,N-dimethyl carbamate]	> 1.9	–	–	> 1.3	–	IC50 ([5]; Leishmania amazonensis, 72 h, read-out: L. amazonensis Promastigote IC50, promastigotes, alamarBlue, 72 h at 26 °C): 150 to 250 µM; IC50 ([5]; read-out: L. amazonensis Promastigote IC50, promastigotes, alamarBlue, 72 h at 26 °C): 229 ± 21.4 µM; IC50 (T. cruzi epimastigotes; Trypanosoma cruzi, 72 h, read-out: T. cruzi Epimastigote IC50, epimastigotes, alamarBlue, 72 h at 26 °C): 150 to 250 µM; IC50 (T. cruzi epimastigotes; read-out: T. cruzi Epimastigote IC50, epimastigotes, alamarBlue, 72 h at 26 °C): 158 ± 2.9 µM; CC50 ([3]; murine macrophages J774.A1): > 300 µM
CCCCCCCCCCCCCCCCOP(=O)([O-])OCC[N+](C)(C)C [M, Miltefosine, reference compound]	–	–	72.2 ± 8.9	11.1	6.5 ± 0.3	selectivity ratio [10]: 23.3; IC50 [11]: 3.1 ± 0.3 µM
